Test results taken from ChEMBL document CHEMBL1151153, “Chemistry of Sponges, VII. 11,19-Dideoxyfistularin 3 and 11-Hydroxyaerothionin, Bromotyrosine Derivatives from Pseudoceratina durissima” (J Nat Prod, 1990).
The source made the active and inactive calls.

Tests used:
Assay type in all cases: functional, organism-based
Staphylococcus aureus [1] = assay: Antimicrobial activity against Staphylococcus aureus at 25 ug/disk
Bacillus subtilis [2] = assay: Antimicrobial activity against Bacillus subtilis at 10 ug/disk
Candida albicans [3] = assay: Antimicrobial activity against Candida albicans at 25 ug/disk
Candida albicans [4] = assay: Antimicrobial activity against Candida albicans at 50 ug/disk
Bacillus subtilis [5] = assay: Antimicrobial activity against Bacillus subtilis at 50 ug/disk
Staphylococcus aureus [6] = assay: Antimicrobial activity against Staphylococcus aureus at 100 ug/disk

Measured: Activity

COC1=C(Br)[C@@H](O)[C@]2(C=C1Br)CC(C(=O)NCCc1cc(Br)c(OCCCNC(=O)C3=NO[C@]4(C=C(Br)C(OC)=C(Br)[C@@H]4O)C3)c(Br)c1)=NO2
active: Staphylococcus aureus [1] | Bacillus subtilis [2] | Candida albicans [3]

COC1=C(Br)[C@H](O)[C@@]2(C=C1Br)CC(C(=O)NCCCCNC(=O)C1=NO[C@]3(C=C(Br)C(OC)=C(Br)[C@@H]3O)C1)=NO2
active: Candida albicans [4] | Bacillus subtilis [5] | Staphylococcus aureus [6]

COC1=C(Br)[C@H](O)[C@@]2(C=C1Br)CC(C(=O)NCCCCCNC(=O)C1=NO[C@]3(C=C(Br)C(OC)=C(Br)[C@@H]3O)C1)=NO2
active: Candida albicans [4] | Bacillus subtilis [5] | Staphylococcus aureus [6]

COC1=C(Br)[C@@H](O)[C@]2(C=C1Br)CC(C(=O)NCCC(O)CNC(=O)C1=NO[C@]3(C=C(Br)C(OC)=C(Br)[C@@H]3O)C1)=NO2 (some centres not stated)
active: Candida albicans [4] | Bacillus subtilis [5] | Staphylococcus aureus [6]
